Results as given in US20060217456A1, “Non-toxic coating composition, methods of use thereof and articles protected from attachment of biofouling organisms” (priority 2003, published 2006).
Values after ≈ are worked out from the molar mass of the structure shown. Like-named read-outs stand apart in the source and are kept apart here.

Experiments:
[1] = system: cyprid stage larvae of the barnacle, Balanus amphitrite Darwin; assay: Barnacle settlement assay (cyprid larvae in seawater dishes); assay type: in vivo; details: single compound, 28° C., 9 hours; for EC50: Amphibalanus amphitrite, read-out: EC50 (concentration inhibiting settlement of 50% of cyprid larvae)
Excerpt: Adults of the barnacle, Balanus amphitrite Darwin, were collected from the Sacred Heart Marine Research Center at St. Mary's College in Tuticorin, India. The barnacles were crushed and the nauplius stage larvae were collected for culture to the cyprid stage following the method of Rittschof et al., J. Exp. Mar. Biol. Ecol., 82:131-146 (1984). The cyprid is the stage at which the barnacle larva is competent to attach to surfaces. Upon attachment to a surface, the larva then undergoes metamorphosis into a barnacle.
Barnacle settlement assays were undertaken using the method described previously by Rittschof et al., J. Chem. Ecol., 11: 551-563 (1985). Briefly, Falcon 50×9 mm plastic petri dishes were filled with 5 ml of filtered seawater at salinity of 33-35 parts per thousand (ppt) and into which 3-day old cyprid stage larvae were added. Menthol and/or isopulegol and/or compounds listed under ii) a) to f), above, were introduced at various concentrations into the dishes containing seawater. Controls were represented by those dishes in which no test compound were added. After incubation at 28° C. for 9 hours, the dishes were examined under a dissecting microscope to determine if there was any mortality. The larvae were then killed with 10% formalin and the number of attached and unattached larvae were counted. Settlement data were expressed as the percentage of the larvae attached to the bottom of the dish.
The settlement assay was used to determine the effective concentration of a number of different compounds listed under ii) a) to f), above. The effective concentration (EC50) is that concentration which inhibited the settlement of fifty percent (50%) of the cyprid stage of the barnacle larvae present in a test sample. The racemic […] compounds are denoted with the prefix rac-.

[2] = system: barnacle, Balanus amphitrite communis; assay: Marine paint panel immersion test, barnacles attached to painted iron panels; details: cuprous oxide marine paint on iron panels, submerged 78 weeks, Bitac Cove; control = 100
Protocol: A floating platform was constructed using layers of bamboo and styrofoam floats. The platform was designed with holders to accommodate test panels measuring 4 inches×12 inches×0.25 inches (1 inch=2.54 cm). A first experimental paint was prepared, containing a biocidally effective amount of cuprous oxide and no other biocide which was used as the control. This composition consisted of 40 parts by weight of cuprous oxide, 10 parts by weight of iron oxide red, 5 parts by weight of xylene, 10 parts by weight of butyl alcohol, 5 parts by weight polyamide resin, 6 parts by weight of plasticizer. To this composition was added a combination of 0.5% by weight of rac-isopulegol, 0.25% by weight of (−)-menthol and 0.25% by weight of 1-menthol propyleneglycol carbonate (Composition A). A second paint composition was prepared from the same marine paint vehicle containing cuprous oxide, to which was added 2% by weight of (−)-menthol (Composition B). A third formulation was made from the same cuprous oxide-containing marine paint vehicle, to which was added 2% by weight of rac-isopulegol (Composition C). A fourth formulation was made from the same cuprous oxide-containing marine paint vehicle, to which was added 2% by weight of 1-menthol propyleneglycol carbonate (Composition D). Solid iron panels having the above-mentioned dimensions were painted with the paint formulations thus prepared, placed in the holders in the floating platform and submerged continuously near the center of Bitac Cove in San Dionisio Bay (Philippines) for a period of 78 weeks. The panels were examined for a few minutes every three months and immediately resubmerged after photography. After 78 weeks, the panels were removed and inspected. The numbers of barnacles attached to the panels were counted. The major fouling organisms included the barnacle, Balanus amphitrite communis, and the rock oyster, Crossostrea cuculata.

[3] = system: cyprid stage larvae of the barnacle, Balanus amphitrite Darwin; details: single compound; 28° C., 9 hours; see WO 01/95718; cited from earlier work

Molecule | EC50 (concentration inhibiting settlement of 50% of cyprid larvae) [1] [µg/mL] | EC50 (concentration inhibiting settlement of 50% of cyprid larvae) [3] | also measured
CC(O)C(=O)O[C@@H]1C[C@H](C)CC[C@H]1C(C)C (mixture of isomers) [I-menthyl lactate, 1-menthyllactate] | – | – | EC50 [1]: 0.002 µg/mL
C=C(C)[C@@H]1CC[C@@H](C)C[C@H]1O (racemic) [rac-isopulegol] | 0.029 | – | % Settlement [2]: 16.1%
CC1CCC(C(C)C)C(O)C1 (racemic) [rac-menthol] | – | 0.1 (see WO 01/95718) mg/ml | –
CC1CCC(C(C)C)C2(C1)OCC(CO)O2 (racemic) [rac-menthone glycerin acetal] | 0.049 | – | –
CC1CCC(C(C)C)C(O)C1 (stereo not drawn) [1R, 2S, 5R-(−)-menthol (=l-menthol), 1R, 2S, 5R-(−)-menthol] | – | 4 * 10^−3 (see WO 01/95718) mg/ml | % Settlement [2]: 12.2%
CC1CC[C@H](C(C)C)[C@@H](O)C1 (stereo partly drawn) [1S, 2R, 5S-(+)-menthol, reference compound] | – | 0.1 (see WO 01/95718) mg/ml | –
C=C(C)[C@H]1CC=C(C)CC1 [d-limonene, reference compound] | 0.029 | – | –
CC(C)[C@@H]1CC[C@@H](C)C[C@@]12OCC(CO)O2 (stereo partly drawn) [menthone glycerin acetal] | – | – | EC50 [1]: 0.00052 µg/mL (≈ 0.00228 µM)
COC1CC(C)CCC1C(C)C (stereo not drawn) [menthylmethylether, reference compound] | – | – | EC50 [1]: 0.11 µg/mL (≈ 0.646 µM)
(−)-isopulegol | – | 8.8 * 10^−5 (see WO 01/95718) mg/ml | –
(−)-menthone [reference compound] | – | 0.001 (see WO 01/95718) mg/ml | –
l-menthyl propyleneglycol carbonate | 0.0022 | – | % Settlement [2]: 23.4%
